What all share (assay type): functional
The test system of one assay is Escherichia coli. Briefly: Antibacterial activity against Escherichia coli ATTC 25922 after 24 hrs by the disk diffusion method. The following applies: for MIC: Escherichia coli, ATTC 25922, 24 h. On the technique in general: Agar diffusion results depend on both activity and mobility in agar.
The test system of another assay is Staphylococcus aureus. Briefly: Antibacterial activity against Staphylococcus aureus ATTC […] after 24 hrs by the disk diffusion method. The conditions noted are these: for MIC: Staphylococcus aureus, 24 h.
The subject of a further assay is Pseudomonas aeruginosa. Briefly: Antibacterial activity against Pseudomonas aeruginosa ATTC 27853 after 24 hrs by the disk diffusion method. The following applies: for MIC: Pseudomonas aeruginosa, ATTC 27853, 24 h.
The next assay deals with Klebsiella pneumoniae. Briefly: Antibacterial activity against Klebsiella pneumoniae after 24 hrs by the disk diffusion method. The conditions noted are these: for MIC: Klebsiella pneumoniae, 24 h.
In the next assay the test system is Candida albicans. Briefly: Antifungal activity against Candida albicans NICM 300 after 3 to days by serial plate dilution method. The conditions noted are these: for MIC: Candida albicans, NICM 300.
The subject of another assay is Aspergillus fumigatus. Briefly: Antifungal activity against Aspergillus fumigatus NICM 902 after 3 to days by serial plate dilution method. The following applies: for MIC: Aspergillus fumigatus, NICM 902.
A further assay relates to Aspergillus flavus. Briefly: Antifungal activity against Aspergillus flavus NICM 524 after 3 to days by serial plate dilution method. The conditions noted are these: for MIC: Aspergillus flavus, NICM 524.
In assay [1] the test system is Trichophyton mentagrophytes. Briefly: Antifungal activity against Trichophyton mentagrophytes after 3 to days by serial plate dilution method. The following applies: for MIC: Trichophyton mentagrophytes.

≈ marks a conversion by molar mass, not a printed value.

Usually MIC stands for the least concentration at which growth counts as inhibited. Lower therefore signals a more susceptible organism. With `CSc1ccc(Cc2nnc3sc(-c4ccc(-c5ccc(C)cc5)o4)nn23)cc1`, the “inhibition zone (IZ)” value is reported as 18 mm in the assay with Escherichia coli, 18 mm in the assay with Staphylococcus aureus, 18 mm with Pseudomonas aeruginosa and 23 mm with Klebsiella pneumoniae. In addition, the minimum inhibitory concentration (MIC) against Escherichia coli came out at 6 µg/mL (≈ 14.3 µM); against Staphylococcus aureus it was 12.5 µg/mL (≈ 29.9 µM); against Pseudomonas aeruginosa, 6 µg/mL (≈ 14.3 µM); against Klebsiella pneumoniae, 6 µg/mL (≈ 14.3 µM); against Candida albicans, 25 µg/mL (≈ 59.7 µM); in the assay with Aspergillus fumigatus, 12.5 µg/mL (≈ 29.9 µM). In addition, the minimal inhibitory concentration (MIC) in the assay on Aspergillus flavus worked out at 25 µg/mL (≈ 59.7 µM); in assay [1], 12.5 µg/mL (≈ 29.9 µM). The “diameter of the inhibition zone (DIZ)” value turned out to be 14 mm in the assay on Candida albicans, 21 mm with Aspergillus fumigatus, 11 mm in the assay with Aspergillus flavus and 17 mm in assay [1].

For `COc1ccc(-c2ccc(-c3nn4c(Cc5ccc(SC)cc5)nnc4s3)o2)c([N+](=O)[O-])c1`, the “inhibition zone (IZ)” value in the assay on Escherichia coli was 13 mm; with Staphylococcus aureus it was 12 mm; in the assay on Pseudomonas aeruginosa, 12 mm; in the assay with Klebsiella pneumoniae it was 21 mm. Also, the minimal inhibitory concentration (MIC) was 25 µg/mL (≈ 52.1 µM) against Escherichia coli; 25 µg/mL (≈ 52.1 µM) in the assay on Staphylococcus aureus; 25 µg/mL (≈ 52.1 µM) in the assay on Pseudomonas aeruginosa; 6 µg/mL (≈ 12.5 µM) in the assay with Klebsiella pneumoniae; 25 µg/mL (≈ 52.1 µM) with Candida albicans; 12.5 µg/mL (≈ 26.1 µM) in the assay with Aspergillus fumigatus. The MIC (in the assay on Aspergillus flavus; in assay [1]) was 25 µg/mL (≈ 52.1 µM) throughout. Besides, the “diameter of the inhibition zone (DIZ)” value is on record as 17 mm in the assay on Candida albicans, 19 mm in the assay on Aspergillus fumigatus, 12 mm with Aspergillus flavus and 15 mm in assay [1].

For the molecule `CSc1ccc(Cc2nnc3sc(-c4ccc([N+](=O)[O-])cc4Cl)nn23)cc1`, the “inhibition zone (IZ)” value in the assay on Escherichia coli is listed as 18 mm; in the assay with Staphylococcus aureus, 19 mm; in the assay with Pseudomonas aeruginosa, 17 mm; in the assay with Klebsiella pneumoniae it was 23 mm. The MIC was found to be 12.5 µg/mL (≈ 29.9 µM) in the assay with Escherichia coli; 12.5 µg/mL (≈ 29.9 µM) against Staphylococcus aureus; 12.5 µg/mL (≈ 29.9 µM) in the assay on Pseudomonas aeruginosa; 6 µg/mL (≈ 14.4 µM) in the assay on Klebsiella pneumoniae; 6 µg/mL (≈ 14.4 µM) with Candida albicans; 6 µg/mL (≈ 14.4 µM) with Aspergillus fumigatus. Moreover, the MIC with Aspergillus flavus was 12.5 µg/mL (≈ 29.9 µM); in assay [1], 6 µg/mL (≈ 14.4 µM). Besides, the “diameter of the inhibition zone (DIZ)” value in the assay with Candida albicans is recorded as 20 mm; in the assay on Aspergillus fumigatus, 22 mm; in the assay with Aspergillus flavus it was 17 mm; in assay [1], 19 mm.

As for `CSc1ccc(Cc2nnc3sc(-c4ccc(-c5ccccc5C(F)(F)F)o4)nn23)cc1`, the “inhibition zone (IZ)” value with Escherichia coli came out at 18 mm; in the assay with Staphylococcus aureus, 19 mm; with Pseudomonas aeruginosa, 18 mm; in the assay on Klebsiella pneumoniae, 25 mm. Moreover, the minimal inhibitory concentration (MIC) was found to be 12.5 µg/mL (≈ 26.5 µM) in the assay with Escherichia coli; 12.5 µg/mL (≈ 26.5 µM) with Staphylococcus aureus; 6 µg/mL (≈ 12.7 µM) against Pseudomonas aeruginosa; 6 µg/mL (≈ 12.7 µM) against Klebsiella pneumoniae; 25 µg/mL (≈ 52.9 µM) in the assay with Candida albicans; 6 µg/mL (≈ 12.7 µM) in the assay on Aspergillus fumigatus. Besides, the minimum inhibitory concentration (MIC) was determined as 25 µg/mL (≈ 52.9 µM) against Aspergillus flavus and 6 µg/mL (≈ 12.7 µM) in assay [1]. Besides, the “diameter of the inhibition zone (DIZ)” value in the assay with Candida albicans turned out to be 15 mm; in the assay with Aspergillus fumigatus it was 20 mm; in the assay with Aspergillus flavus it was 11 mm; in assay [1], 20 mm.

`CSc1ccc(Cc2nn3c(Cc4ccc(SC)cc4)nnc3s2)cc1`: the “inhibition zone (IZ)” value is given as 16 mm in the assay with Escherichia coli, 18 mm in the assay with Staphylococcus aureus, 18 mm in the assay on Pseudomonas aeruginosa and 13 mm with Klebsiella pneumoniae. Besides, the MIC is 12.5 µg/mL (≈ 31.4 µM) in the assay on Escherichia coli; 12.5 µg/mL (≈ 31.4 µM) in the assay with Staphylococcus aureus; 6 µg/mL (≈ 15.1 µM) with Pseudomonas aeruginosa; 25 µg/mL (≈ 62.7 µM) in the assay with Klebsiella pneumoniae; 6 µg/mL (≈ 15.1 µM) in the assay on Candida albicans; 6 µg/mL (≈ 15.1 µM) against Aspergillus fumigatus. Besides, the MIC with Aspergillus flavus was found to be 25 µg/mL (≈ 62.7 µM); in assay [1], 6 µg/mL (≈ 15.1 µM). In addition, the “diameter of the inhibition zone (DIZ)” value in the assay with Candida albicans is listed as 19 mm; with Aspergillus fumigatus it was 22 mm; in the assay on Aspergillus flavus it was 17 mm; in assay [1] it was 20 mm.

As for `CSc1ccc(Cc2nnc3sc(-c4cc(F)c(Cl)cc4Cl)nn23)cc1`, the “inhibition zone (IZ)” value turned out to be 20 mm with Escherichia coli, 19 mm in the assay on Staphylococcus aureus, 17 mm with Pseudomonas aeruginosa and 23 mm in the assay on Klebsiella pneumoniae. The minimal inhibitory concentration (MIC) in the assay with Escherichia coli was 6 µg/mL (≈ 14.1 µM); against Staphylococcus aureus, 12.5 µg/mL (≈ 29.4 µM); in the assay on Pseudomonas aeruginosa, 12.5 µg/mL (≈ 29.4 µM); with Klebsiella pneumoniae, 6 µg/mL (≈ 14.1 µM); against Candida albicans it was 6 µg/mL (≈ 14.1 µM); in the assay on Aspergillus fumigatus it was 6 µg/mL (≈ 14.1 µM). The MIC (in the assay on Aspergillus flavus; in assay [1]) was 6 µg/mL (≈ 14.1 µM) in each case. The “diameter of the inhibition zone (DIZ)” value was determined as 20 mm in the assay with Candida albicans, 21 mm in the assay with Aspergillus fumigatus, 18 mm in the assay with Aspergillus flavus and 19 mm in assay [1].

As to `CSc1ccc(Cc2nnc3sc(-c4cc(Cl)ccc4Cl)nn23)cc1`, the “inhibition zone (IZ)” value in the assay on Escherichia coli was 12 mm; with Staphylococcus aureus, 15 mm; with Pseudomonas aeruginosa it was 10 mm; with Klebsiella pneumoniae, 13 mm. Moreover, the minimal inhibitory concentration (MIC) against Escherichia coli, with Staphylococcus aureus, against Pseudomonas aeruginosa, in the assay on Klebsiella pneumoniae, in the assay on Candida albicans and in the assay on Aspergillus fumigatus was 25 µg/mL (≈ 61.4 µM) in each case. The MIC (against Aspergillus flavus; in assay [1]) was 25 µg/mL (≈ 61.4 µM) each time. In addition, the “diameter of the inhibition zone (DIZ)” value with Candida albicans is recorded as 15 mm; with Aspergillus fumigatus, 11 mm; in the assay on Aspergillus flavus, 11 mm; in assay [1], 13 mm.

On to `CSc1ccc(Cc2nnc3sc(-c4ccc(Br)cc4)nn23)cc1`, for which the “inhibition zone (IZ)” value with Escherichia coli was 13 mm; in the assay with Staphylococcus aureus, 15 mm; with Pseudomonas aeruginosa it was 16 mm; in the assay with Klebsiella pneumoniae it was 20 mm. Also, the MIC against Escherichia coli, in the assay with Staphylococcus aureus, against Pseudomonas aeruginosa, in the assay on Klebsiella pneumoniae, against Candida albicans and in the assay with Aspergillus fumigatus was 25 µg/mL (≈ 59.9 µM) in each case. For the same molecule, the minimum inhibitory concentration (MIC) against Aspergillus flavus is 12.5 µg/mL (≈ 30 µM); in assay [1], 25 µg/mL (≈ 59.9 µM). Besides, the “diameter of the inhibition zone (DIZ)” value turned out to be 13 mm in the assay with Candida albicans, 14 mm with Aspergillus fumigatus, 15 mm with Aspergillus flavus and 13 mm in assay [1].

`CSc1ccc(Cc2nnc3sc(-c4ccc(-c5ccc(Cl)cc5)o4)nn23)cc1`: the “inhibition zone (IZ)” value is on record as 20 mm in the assay on Escherichia coli, 18 mm in the assay on Staphylococcus aureus, 18 mm with Pseudomonas aeruginosa and 22 mm in the assay on Klebsiella pneumoniae. In addition, the minimum inhibitory concentration (MIC) in the assay on Escherichia coli was found to be 6 µg/mL (≈ 13.7 µM); against Staphylococcus aureus, 12.5 µg/mL (≈ 28.5 µM); against Pseudomonas aeruginosa, 6 µg/mL (≈ 13.7 µM); against Klebsiella pneumoniae, 12.5 µg/mL (≈ 28.5 µM); with Candida albicans, 25 µg/mL (≈ 57 µM); with Aspergillus fumigatus, 12.5 µg/mL (≈ 28.5 µM). In addition, the MIC (with Aspergillus flavus; in assay [1]) was 25 µg/mL (≈ 57 µM) in each case. The “diameter of the inhibition zone (DIZ)” value came to 12 mm in the assay on Candida albicans, 17 mm in the assay on Aspergillus fumigatus, 10 mm in the assay with Aspergillus flavus and 16 mm in assay [1].

Take `CSc1ccc(Cc2nnc3sc(-c4ccc(-c5cc(Cl)c(Cl)cc5Cl)o4)nn23)cc1`: the “inhibition zone (IZ)” value in the assay with Escherichia coli came out at 12 mm; with Staphylococcus aureus it was 13 mm; in the assay with Pseudomonas aeruginosa, 10 mm; with Klebsiella pneumoniae, 10 mm. Further, the MIC in the assay with Escherichia coli, in the assay with Staphylococcus aureus, in the assay with Pseudomonas aeruginosa, in the assay with Klebsiella pneumoniae, against Candida albicans and in the assay on Aspergillus fumigatus was 25 µg/mL (≈ 49.2 µM) in each case. Further, the MIC in the assay with Aspergillus flavus was 12.5 µg/mL (≈ 24.6 µM); in assay [1], 25 µg/mL (≈ 49.2 µM). The “diameter of the inhibition zone (DIZ)” value with Candida albicans is recorded as 12 mm; with Aspergillus fumigatus, 12 mm; with Aspergillus flavus, 17 mm; in assay [1], 17 mm.

For the molecule `CSc1ccc(Cc2nnc3sc(-c4ccc(Cl)c(Cl)c4Cl)nn23)cc1`, the “inhibition zone (IZ)” value was found to be 19 mm in the assay on Escherichia coli, 18 mm in the assay on Staphylococcus aureus, 17 mm in the assay on Pseudomonas aeruginosa and 24 mm in the assay with Klebsiella pneumoniae. Besides, the minimal inhibitory concentration (MIC) in the assay with Escherichia coli was found to be 12.5 µg/mL (≈ 28.3 µM); against Staphylococcus aureus, 12.5 µg/mL (≈ 28.3 µM); against Pseudomonas aeruginosa, 12.5 µg/mL (≈ 28.3 µM); in the assay on Klebsiella pneumoniae it was 6 µg/mL (≈ 13.6 µM); with Candida albicans it was 25 µg/mL (≈ 56.6 µM); in the assay on Aspergillus fumigatus, 25 µg/mL (≈ 56.6 µM). In addition, the MIC (with Aspergillus flavus; in assay [1]) was 25 µg/mL (≈ 56.6 µM) throughout. Besides, the “diameter of the inhibition zone (DIZ)” value in the assay on Candida albicans stood at 10 mm; in the assay on Aspergillus fumigatus, 13 mm; with Aspergillus flavus, 15 mm; in assay [1], 17 mm.

Consider `Cc1cc(C2CCCCC2)n(O)c(=O)c1.NCCO` [CICLOPIROX OLAMINE], for which the “diameter of the inhibition zone (DIZ)” value is reported as 20 mm with Candida albicans, 22 mm in the assay on Aspergillus fumigatus, 18 mm with Aspergillus flavus and 20 mm in assay [1]. The MIC stood at 6 µg/mL against Candida albicans, 6 µg/mL in the assay with Aspergillus fumigatus, 12.5 µg/mL against Aspergillus flavus and 6 µg/mL in assay [1].

For the origin of these results see ChEMBL document CHEMBL1138545, “Synthesis and antimicrobial activities of some new triazolothiadiazoles bearing 4-methylthiobenzyl moiety” (2009).
